SMILES strings stand for the structures. Entries after “also recorded” stand apart in the source; their conditions may differ. Where only a bound is given, the exact number is not on record here.

The subject of data set [1] is poly-ADP ribose synthetase. The note with it: cited from earlier work.
Data set [2] deals with EMT-6, Lewis Lung, and RIF-1 tumors. As to conditions: injection prior to radiation treatment; cited from earlier work.
The nature of data set [3]: Tolerability of nicotinamide in mice. The note with it: optimal dose of 0.5 gm/kg (1.5 gm/m^2).
The test system of data set [4] is C3H mammary adenocarcinoma. The note with it: transplanted C3H mammary adenocarcinoma; cited from earlier work.
The next data set deals with Meth-A fibrosarcoma. As to the kind of experiment: Radiation enhancement by nicotinamide in Meth-A fibrosarcoma. Type of data set: in vivo, murine. The note with it: radiosensitive tumor. The text has this: The mechanism by which nicotinamide produces radiation enhancement is not established.
Another data set relates to cell culture models. Kind of data set: Radiation enhancement by nicotinamide in cell culture. The class given is cell-based. From the text: (22) See FIGS. 9 and 10. As noted previously, the following DMF's were obtained for the respective experimental conditions: Nicotinamide+Radiation Therapy=1.36, Hyperthermia+Radiation Therapy=1.36, Nicotinamide+Hyperthermia+Radiation Therapy=1.64.

The conditions of data set [5]: in vivo; cited from earlier work.
The subject of a further data set is MCA mammary carcinoma. As to the kind of experiment: Radiation enhancement in the transplanted MCA mammary carcinoma, with or without mild hyperthermia. The class given is in vivo, murine. The protocol: Nicotinamide was administered intraperitoneal one (1) […] before irradiation. Localized mild hyperthermia (41° C.) was applied for one (1) hour immediately prior to irradiation.

Another data set concerns HeLa cells. Kind of data set: Effect of gossypol on cell multiplication at 37° C. Type of data set: cell-based, human. The protocol: (§1) Experiments were carried out with HeLa S-3 cells grown in Eagle's minimal essential medium supplemented with 10% fetal calf serum.
(§2) The pH of the culture medium was adjusted by varying the CO2 content of the gas phase within the flasks. The buffering system of Eagle's minimal essential medium consisted of 26 mM NaHCO3 at 5% CO2 for neutral pH of 7.4. To obtain a pH of 6.7, for example, the flasks were flushed with the gas mixtures containing 26% CO2. The pH of the culture medium was monitored throughout the treatment procedures by sealing a combination electrode in a treatment vessel and monitored with temperature-compensated digital pH meter.
(§3) Gossypol was dissolved in DMSO immediately prior to experiments. DMSO produced no enhancement of hyperthermic cytotoxicity with the range studied.
Preliminary experiments were carried out to determine the effect of gossypol on cell division. Exponentially growing HeLa cells were exposed to the drug for 72 hours at 37° C. Control cells grew exponentially with a doubling time of approximately 19 hours.

Data set [6] has as its system HeLa S-3 cells. As to the kind of experiment: Effect of gossypol on cell survival at elevated temperature, pH and glucose conditions. The class given is cell-based, human. As to conditions: for viability at 10 µg/mL: Homo sapiens, HeLa S3. The protocol:
as §1
Plated monolayer cells were heated within 0.05° of the desired temperature by totally immersing plastic culture flasks in a heated water bath. Water bath temperatures were verified by a National Bureau of Standards thermometer.
as §2
(§4) The "glucose-deprived" medium was prepared by adding 10% dialyzed fetal calf serum to the culture medium without glucose. The dialyzed fetal calf serum contained less than 1 mg glucose per 100 ml so that the final concentration of glucose in the "glucose-deprived" medium was less than 0.001 mg per ml.
as §3
For example, at 10 μg/m. and 2 hours exposure at 42° C., the cells survival is reduced to 1% under acidic condition. Heat treatment alone reduces the cell survival to only 50% of the control.
Since gossypol has been reported to interfere with cellular energy metabolism, experiments were performed to determine the influence of glucose on the cytotoxic effect of gossypol. […] The survival of glucose-fed cells exposed to the same treatment was approximately 10% while that of glucose-deprived cells can further enhance the cytotoxic effect of gossypol at elevated temperature.

Another data set relates to spermatogenesis. The note with it: in vivo; cited from earlier work.
Data set [7] concerns cultured tumor cell lines. The note with it: cited from earlier work.
The next data set deals with testicular tissues. As to conditions: cited from earlier work.
Data set [8] has as its system glycolytic and mitochondrial bound enzymes. The note with it: cited from earlier work.
The test system of the next data set is cells. As to conditions: high doses; cited from earlier work.
In data set [9] the test system is HeLa S-3 cells. As to the kind of experiment: cells. Type of data set: cell-based, human. The note with it: for viability at 10 µg/mL: Homo sapiens, HeLa S3, 24 hours. The protocol:
Experiments were carried out with HeLa S-3 cells grown in Eagle's minimal essential medium supplemented with 10% fetal calf serum. […] No antifungal agent was used.
Cell survival was assayed by colony-forming ability of plated single cells to obtain quantitative dose-survival curves. Details of cloning experiments including colony court have been described elsewhere (See, e.g., Kim et al. supra).
Plated a synchronous monolayer cells were heated to within 0.05° C. of the desired temperature by totally immersing plastic culture flasks in a water bath. Water bath temperatures were verified by a National Bureau of Standards calibrated thermometer.
The pH of the culture medium was adjusted by varying the CO2 content of the gas phase within the flasks. […] The pH of the culture medium was monitored throughout the treatment procedures by sealing a combination electrode in a treatment vessel and monitored with a temperature-compensated digital pH meter.
as §4

Setting [10] is: human cancer cells (HeLa), heated.
[11] abbreviates: acidic pH, glucose-deprived cells.

With `NC(=O)c1cccnc1` [nicotinamide], the “inhibition of poly-ADP ribose synthetase” value in data set [1] is reported as “inhibitor of poly-ADP ribose synthetase”. In addition, the “optimal timing of drug for radiation enhancement” value in data set [2] is 1 to 3 h. In data set [3], the toxicity in mice entry was “non-toxic in mice”. Moreover, the radiation enhancing effects entry in [4] was “radiation enhancing effects”. Moreover, the “radiation enhancement in oxic Meth-A fibrosarcoma” value in the data set on Meth-A fibrosarcoma was “inactive against the oxic Meth-A fibrosarcoma model; also recorded: no radio-enhancing effect”. The “activity in cell culture models” value in the data set with cell culture models (in our hands) is given as “not active in cell culture models”. Further, the “radiation enhancement in cell culture” value with cell culture models (nicotinamide concentrations <10 mM) is recorded as “No radiation enhancement”. In addition, in data set [5], the safety in humans entry was “safe and associated with only a low incidence of side effects”. Besides, the “radiation dose modification factor, nicotinamide + hyperthermia + radiation” value in the data set with MCA mammary carcinoma (0.5 gm/kg 1 hour prior to radiation, 41° C. for one hour, b79 statement) came out at 1.77. Moreover, the “DMF, Nicotinamide+Hyperthermia+Radiation Therapy” value with MCA mammary carcinoma (125 to 500 mg/kg i.p. one hour prior to irradiation, 1 hour heating at 41° C., b86 statement) is 1.64. Moreover, in the data set with MCA mammary carcinoma (125 to 500 mg/kg i.p. one hour prior to irradiation, b86 statement), the “DMF, Nicotinamide+Radiation Therapy” value is listed as 1.36. The “enhancement of effects of radiation and radiation plus hyperthermia” value in the data set with MCA mammary carcinoma (125 to 500 mg/kg i.p., one hour prior to irradiation, 41° C. 1 hour) is “clear enhancement of the effects of radiation and radiation plus hyperthermia”. Further, in the data set with MCA mammary carcinoma (without hyperthermia, b79 statement), the “DMF, nicotinamide plus radiation (without hyperthermia)” value was 1.35.

For `Cc1cc2c(C(C)C)c(O)c(O)c(C=O)c2c(O)c1-c1c(C)cc2c(C(C)C)c(O)c(O)c(C=O)c2c1O` [gossypol], in the data set on HeLa cells (1.25 μg/ml), the “growth rate versus control” value was “the same as that of the control cells”. The doubling time entry in the data set with HeLa cells (2.5 μg/ml, incubation times greater than 24 hours) is listed as “a lengthening of doubling time was observed”. The “growth curve versus control” value in the data set with HeLa cells (2.5 μg/ml, initial 24 hours) was “not significantly different from the control”. The “cell growth (multiplication)” value in the data set with HeLa cells (5, 10 and 20 μg/ml, 72 hours) was “grew exponentially for the first 24 hour period and then remained stationary”. In addition, in the data set on HeLa S-3 cells [6] (10 μg/ml, glucose-deprived, 37° C., pH 7.4), the “cytotoxicity, glucose deprivation at 37° C.” value is on record as “no apparent cytotoxicity”. Besides, the “cell killing, glucose deprivation at 42° C.” value with HeLa S-3 cells [6] (10 μg/ml, glucose-deprived, 42° C. for 4 hours, pH 7.4) was “a substantial increase in cell killing”. For the same compound, in the data set on HeLa S-3 cells [6] (5 and 10 μg/ml, up to 4 hours, 37° C., acidic or neutral conditions), the “drug toxicity (cell survival)” value was “no appreciable drug toxicity”. Moreover, the viability at 10 µg/mL in the data set on HeLa S-3 cells [6] (10 μg/ml, 2 hours exposure at 42° C., acidic condition (heat alone: 50% of control), read-out: cell survival) is 1%; in the data set on HeLa S-3 cells [6] (10 μg/ml, glucose-fed, 42° C. for 4 hours, pH 7.4, read-out: survival of glucose-fed cells), roughly 10%. Further, the “pH dependence of cytotoxic effect of hyperthermia on drug-treated cells” value in the data set with HeLa S-3 cells [6] (elevated temperature, acidic vs neutral) was “most pronounced under acidic conditions”. In addition, the hyperthermic sensitization result in the data set on HeLa S-3 cells [6] (setting [10]) was “effective hyperthermic sensitizers of human cancer cells”. For the same compound, the inhibition of spermatogenesis result with spermatogenesis is “inhibitor of spermatogenesis”. For the same compound, the anti-tumor effects entry in data set [7] is given as “anti-tumor effects against cultured tumor cell lines”. For the same compound, the “toxicity to testicular tissues” value with testicular tissues (in vivo) is “selectively toxic to testicular tissues”. In the data set with testicular tissues (non-testicular tissues), the “effect on other tissues” value is “no observable effect on other tissues”. Further, the enzyme inhibition result in data set [8] was “inhibition of glycolytic and mitochondrial bound enzymes”.

Consider `O=C(O)c1cccnc1` [nicotinic acid], for which the “radiation enhancement, MCA mammary tumor, nicotinic acid” value with MCA mammary carcinoma (even at the LD10 dosage) is given as “did not produce radiation enhancement”.

`COC(=O)c1ccccc1-c1c2ccc(=N)cc-2oc2cc(N)ccc12` [rhodamine 123]: the “effects of continuous exposure” value with cells is “inhibit oxidative phosphorylation, to arrest cells in G1 phase, and to induce loss of reproductive capacity”. The “cell surviving fraction, initial 4 hour exposure” value in the data set with HeLa S-3 cells [9] (10 μg/ml, 4 hours, 37° C., glucose-fed or glucose-deprived) was “no appreciable reduction in the cell surviving fraction”. In the data set with HeLa S-3 cells [9] (37° C., 4 hour), the “cell survival at 37° C., exposure limit” value is reported as “did not produce any detectable reduction in cell survival”. The “effect on hyperthermic cytotoxicity, glucose-deprived vs glucose-fed cells” value in the data set on HeLa S-3 cells [9] (40, 41 and 42° C., up to 4 hours) is on record as “selectively increased the cytotoxic effects of hyperthermia in glucose-deprived cells relative to glucose-fed cells”. For the same compound, the viability at 10 µg/mL in the data set on HeLa S-3 cells [9] (10 μg/ml, 37° C., glucose-deprived, read-out: surviving fraction in the absence of glucose) is less than 1%. Besides, the viability at 10 µg/mL in the data set with HeLa S-3 cells [9] (10 μg/ml, 37° C., glucose-fed, read-out: surviving fraction in the presence of glucose) was 80%. Moreover, in the data set with HeLa S-3 cells [9] (setting [11]), the “cytotoxicity at acidic pH relative to pH 7.4” value was “less than that observed at pH 7.4” and the “influence of acidic pH on cytotoxicity of heat” value is on record as “did not substantially enhance the cytotoxicity of heat in glucose-deprived cells”. Besides, the “dependence of potentiation of heat effects” value in the data set with HeLa S-3 cells [9] (glucose-deprived cells, two hours) was “dependent on the elevated temperature and drug concentration in glucose-deprived cells”. The “hyperthermia enhancement in glucose-fed cells” value in the data set on HeLa S-3 cells [9] (glucose-fed, different temperatures for two hours) is listed as “No hyperthermia enhancement”. The hyperthermic sensitization result with HeLa S-3 cells [9] (setting [10]) was “effective hyperthermic sensitizers of human cancer cells”.
